According to ChEMBL document CHEMBL5050841, “Inhibitors of pick1 and uses thereof” (2021):
The source made the active and inactive calls.

Assays:
Mus musculus [1] = assay: Anti-hypersensitive activity in C57BL/6J mouse model of spared nerve injury-induced acute neuropathic pain assessed as increase in ipsilateral paw mechanical threshold at 10 micromol/kg, sc; format: functional, organism-based; conditions: dose 10.0 µmol/kg
[2] = Binding affinity towards PICK1 PDZ domain (unknown origin) measured by fluorescence polarization assay; design: species or system Homo sapiens
Mus musculus [3] = species on record: Mus musculus; assay: Anti-hypersensitive activity in mouse model of spared nerve injury-induced acute neuropathic pain assessed as reduction in GluA1 surface levels in spinal cord at 20 uM, IT by immunoblot analysis; format: functional, organism-based
[4] = Stability of compound in PBS; format: physicochemical; conditions: buffer
Mus musculus [5] = species on record: Mus musculus; assay: Anti-hypersensitive activity in mouse model of spared nerve injury-induced acute neuropathic pain assessed as reduction in GluA2 surface levels in spinal cord at 20 uM, IT by immunoblot analysis; format: functional, organism-based
Mus musculus [6] = species on record: Mus musculus; assay: Disruption of PICK1-GluA2 interaction in lumbar spinal cord lysates of male C57BL/6 mouse assessed as reduction in GluA2 surface levels at 20 uM, IT and measured by immunoblot analysis; format: subcellular
Mus musculus [7] = species on record: Mus musculus; assay: Anti-hypersensitive activity in mouse model of spared nerve injury-induced acute neuropathic pain assessed as increase in paw withdrawal threshold at 20 uM, IT by von Frey test; format: functional, organism-based
Mus musculus [8] = species on record: Mus musculus; assay: Disruption of PICK1-GluA2 interaction in lumbar spinal cord lysates of male C57BL/6 mouse assessed as reduction in GluA1 surface levels at 20 uM, IT and measured by immunoblot analysis; format: subcellular
Mus musculus [9] = species on record: Mus musculus; assay: Binding affinity towards PICK1 in lumbar spinal cord lysates of mouse at 20 uM, IT([…]) and measured by immunoblot analysis; format: subcellular
Mus musculus [10] = species on record: Mus musculus; assay: Disruption of PICK1-GluA2 interaction in lumbar spinal cord lysates of male C57BL/6 mouse at 20 uM, IT and measured by co-immunoprecipitation assay; format: subcellular
[11] = (§1) Binding affinity towards PICK1 in rat hippocampal neurons incubated for 1 hr and measured by DID staining method; format: cell-based; conditions: hippocampal neurone
Mus musculus [12] = species on record: Mus musculus; assay: Disruption of PICK1-GluA2 interaction in lumbar spinal cord lysates of male C57BL/6 mouse assessed as reduction in GluA2 S880 phosphorylation levels at 20 uM, IT and measured by immunoblot analysis; format: subcellular
[13] = Inhibition of macroscopic off-rate of bound PICK1 in Tac-YFP-Dat C24 expressing human HEK293 supported cell membrane sheets; format: cell membranes
Mus musculus [14] = species on record: Mus musculus; assay: Anti-hypersensitive activity in mouse model of spared nerve injury-induced chronic neuropathic pain assessed as increase in paw withdrawal threshold at 20 uM, IT after 14 days by von Frey test; format: functional, organism-based; conditions: time 14.0 day
[15] = Stability of compound in human plasma; format: ADME, cell-free
Rattus norvegicus [16] = assay: Attenuation of cocaine reinstatement in 7 day cocaine treated rat assessed as reduction in cocaine seeking behaviour at 0.3 to 3 nmol/g, iv of TAMRA labeled compound treated for 45 mins prior to administration of cocaine injection; format: functional, organism-based; conditions: dose 0.3-3 nmol/g
[17] = Inhibition of recombinant rat SNAP-543-labeled PICK1 binding to Tac-YFP-Dat C24 expressing human HEK293 supported cell membrane sheets and measured by fluorescence polarization competition binding assay; format: cell membranes
Rattus norvegicus [18] = assay: Attenuation of cocaine reinstatement in 7 day cocaine treated rat assessed as effect on locomotor activity at 3 nmol/g, iv of TAMRA labeled compound treated for 45 mins prior to administration of cocaine injection; format: functional, organism-based
Mus musculus [19] = species on record: Mus musculus; assay: Anti-hypersensitive activity in mouse model of spared nerve injury-induced chronic neuropathic pain assessed as increase in paw withdrawal threshold at 20 uM, IT after 28 days by von Frey test; format: functional, organism-based; conditions: time 28.0 day
Rattus norvegicus [20] = assay: Attenuation of cocaine reinstatement in 7 day cocaine treated rat assessed as effect on inactive lever response at 0.3 to 3 nmol/g, iv of TAMRA labeled compound treated for 45 mins prior to administration of cocaine injection; format: functional, organism-based; conditions: dose 0.3-3 nmol/g
Rattus norvegicus [21] = assay: Attenuation of cocaine reinstatement in 7 day cocaine treated rat assessed as reduction in sucrose seeking behaviour at 3 nmol/g, iv of TAMRA labeled compound treated for 45 mins prior to administration of cocaine injection; format: functional, organism-based
Mus musculus [22] = species on record: Mus musculus; assay: Antiallodynic activity in C57BL6/N mouse model of CFA-induced inflammatory pain assessed as increase in paw withdrawal threshold at 20 uM, IT by von Frey test; format: functional, organism-based
Hippocampal neurone = assay: as §1; format: cell-based
Mus musculus [23] = assay: Anti-hypersensitive activity in mouse model of spared nerve injury-induced chronic neuropathic pain assessed as increase in paw withdrawal threshold at 30 mg/kg, ip after 2 hrs by von Frey test; format: functional, organism-based

SMILES	Activity (Mus musculus [1])	Activity (Mus musculus [3])	Stability [4]	Activity (Mus musculus [5])	Activity (Mus musculus [6])	Activity (Mus musculus [7])	Activity (Mus musculus [8])	Activity (Mus musculus [9])	Activity (Mus musculus [10])	Activity (Mus musculus [12])	IC50 [13]	also measured
CC[C@H](C)[C@H](NC(=O)[C@H](CCCCN)NC(=O)CNC(=O)[C@H](CC(C)C)NC(=O)[C@H](CC(C)C)NC(=O)[C@H](Cc1ccc(O)cc1)NC(=O)CNC(=O)[C@H](C)NC(=O)[C@H](CO)NC(=O)[C@H](CC(N)=O)NC(=O)[C@H](CC(C)C)NC(=O)[C@@H](NC(=O)[C@H](Cc1c[nH]c2ccccc12)NC(=O)CN)[C@@H](C)O)C(=O)N[C@@H](CC(N)=O)C(=O)N[C@@H](CC(C)C)C(=O)N[C@@H](CCCCN)C(=O)N[C@@H](C)C(=O)N[C@@H](CC(C)C)C(=O)N[C@@H](C)C(=O)N[C@@H](C)C(=O)N[C@@H](CC(C)C)C(=O)N[C@@H](C)C(=O)N[C@@H](CCCCN)C(=O)N[C@@H](CCCCN)C(=O)N[C@H](C(=O)N[C@@H](CC(C)C)C(=O)N(CCOCCOCCC(=O)N[C@@H](Cc1cnc[nH]1)C(=O)N[C@@H](Cc1c[nH]c2ccccc12)C(=O)N[C@@H](CC(C)C)C(=O)N[C@@H](CCCCN)C(=O)N[C@H](C(=O)O)C(C)C)CCOCCOCCC(=O)N[C@@H](Cc1cnc[nH]1)C(=O)N[C@@H](Cc1c[nH]c2ccccc12)C(=O)N[C@@H](CC(C)C)C(=O)N[C@@H](CCCCN)C(=O)N[C@H](C(=O)O)C(C)C)[C@@H](C)CC	Active	–	–	–	–	–	–	–	–	–	–	Ki [2]: 7.8 nM
CC(C)C[C@H](NC(=O)[C@H](Cc1c[nH]c2ccccc12)NC(=O)[C@H](Cc1cnc[nH]1)NC(=O)[C@H](CCCNC(=N)N)NC(=O)[C@H](CCCNC(=N)N)NC(=O)[C@H](CCCNC(=N)N)NC(=O)[C@H](CCC(N)=O)NC(=O)[C@H](CCCNC(=N)N)NC(=O)[C@H](CCCNC(=N)N)NC(=O)[C@H](CCCCN)NC(=O)[C@H](CCCCN)NC(=O)[C@H](CCCNC(=N)N)NC(=O)CNC(=O)[C@@H](N)Cc1ccc(O)cc1)C(=O)N[C@@H](CCCCN)C(=O)N[C@H](C(=O)O)C(C)C	–	inactive	Unstable	inactive	inactive	inactive	inactive	inactive	inactive	inactive	Not Active	IC50 [11]: Active
CC(C)C[C@H](NC(=O)[C@H](Cc1c[nH]c2ccccc12)NC(=O)[C@@H](N)Cc1cnc[nH]1)C(=O)N[C@@H](CCCCN)C(=O)N[C@H](C(=O)O)C(C)C	–	–	–	–	–	–	–	–	–	–	Not Active	–
CC(C)C[C@H](NC(=O)[C@H](Cc1c[nH]c2ccccc12)NC(=O)[C@H](Cc1cnc[nH]1)NC(=O)CCOCCOCCN(CCOCCOCCC(=O)N[C@@H](Cc1cnc[nH]1)C(=O)N[C@@H](Cc1c[nH]c2ccccc12)C(=O)N[C@@H](CC(C)C)C(=O)N[C@@H](CCCCN)C(=O)N[C@H](C(=O)O)C(C)C)C(=O)[C@H](CCCNC(=N)N)NC(=O)[C@H](CCCNC(=N)N)NC(=O)[C@H](CCCNC(=N)N)NC(=O)[C@H](CCCNC(=N)N)NC(=O)[C@H](CCCNC(=N)N)NC(=O)[C@H](CCCNC(=N)N)NC(=O)[C@H](CCCCN)NC(=O)[C@H](CCCCN)NC(=O)[C@H](CCCNC(=N)N)NC(=O)CNC(=O)[C@@H](N)Cc1ccc(O)cc1)C(=O)N[C@@H](CCCCN)C(=O)N[C@H](C(=O)O)C(C)C	Active	Active	Stable	Active	inactive	Active	inactive	Active	Active	Active	–	Activity (Mus musculus [14]): Active; Stability [15]: Stable; Activity (Rattus norvegicus [16]): Active; IC50 [17]: 7 nM; Activity (Rattus norvegicus [18]): inactive; Activity (Mus musculus [19]): Active; Activity (Rattus norvegicus [20]): inactive; Activity (Rattus norvegicus [21]): inactive; Activity (Mus musculus [22]): Active; Activity (Hippocampal neurone): Active; IC50 ([13]; read-out: IC50): 1170 nM
NCC1(CC(=O)O)CCCCC1	–	–	–	–	–	–	–	–	–	–	–	Activity (Mus musculus [23]): Active
